pIC50, pKd: −log10 of the molar value. *1 amine or outer side, *2 acyl side, *3 side chain or, on linkers, in order; H or OH if unused. Where a SMILES comes first, the peptide text is derived from it. Bridges are numbered along the chain shown (N, C = ends). [ ]: non-standard residue; d: D form. Trimesoyl = O=C(c1cc(C(=O)[*:2])cc(C(=O)[*:3])c1)[*:1]; 2Nal = N[C@@H](Cc1ccc2ccccc2c1)C(=O)O; Dap = NC[C@H](N)C(=O)O; βAla = NCCC(=O)O
Legend:
[1] = molecular target: NEMO-IKKβ interaction (Homo sapiens, UniProt Q9Y6K9); assay: HTRF assay of inhibition of the NEMO-IKKβ interaction; type: binding; details: insertion of Ala N-terminal to the internal Dap, vs peptide 6
Chain of NEMO-IKKβ interaction (Q9Y6K9 1-196): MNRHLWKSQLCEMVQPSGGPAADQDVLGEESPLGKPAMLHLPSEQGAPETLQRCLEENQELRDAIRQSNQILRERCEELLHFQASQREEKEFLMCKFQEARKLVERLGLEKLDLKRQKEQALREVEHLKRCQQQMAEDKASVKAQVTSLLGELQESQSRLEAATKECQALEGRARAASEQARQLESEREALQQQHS

[2] = system: HeLa cells; assay: Flow cytometry analysis of cellular uptake of FITC-labeled peptides; type: cell-based; details: relative to CPP1
[3] = system: TNFα-induced NF-κB activation in HEK293(Luc) cells; assay: NF-κB luciferase assay, TNFα-induced; type: cell-based
[4] = system: basal NF-κB activity in HEK293(Luc) cells; assay: NF-κB luciferase assay, basal; type: cell-based; details: absence of TNFα stimulation
[5] = system: HT29 colon cancer cells; assay: Immunoblot analysis of IKKβ and IκBα levels; type: cell-based
[6] = system: ovarian surface epithelial cells (OSE); assay: Methylene blue cell viability assay, OSE; type: cell-based; details: 72 h
[7] = system: A375 melanoma cells; assay: Cell viability assay, A375; type: cell-based
[8] = system: A2780 ovarian cancer cells; assay: Live-cell confocal microscopy of cell entry; type: cell-based; details: 5 μM FITC-labeled peptide, 2 h
[9] = molecular target: panel of control proteins; assay: Fluorescence anisotropy; details: fluorescently labeled peptide, FA assay
[10] = 0–25 μM, HT29 cells, TNFα, Western blot

Compound	increase of binding affinity [1]	cell permeability [2]	pIC50 [3]	effect on basal NF-κB activity [4]	increase in the basal NF-κB activity [4]	TNFα-induced phosphorylation of IKKβ [5, 10]	total intracellular IKKβ level [5, 10]	phospho-IKKβ or IκBα level ([5]; HT29 cells not stimulated with TNFα)	intracellular level of IκBα ([5]; HT29 cells, TNFα, Western blot)	effect on viability [6]	effect on viability [7]	cell entry (fluorescence) [8]	pKd [9]
CC[C@H](C)[C@@H]1NC(=O)[C@H](Cc2c[nH]c3ccccc23)NC(=O)CNC(=O)c2cc3cc(c2)C(=O)NC[C@@H](C(=O)NCCC(=O)NCCC(=O)N[C@@H](CCCCN)C(N)=O)NC(=O)[C@H](CCCNC(=N)N)NC(=O)[C@@H](CCCNC(=N)N)NC(=O)[C@H](CCCNC(=N)N)NC(=O)[C@H](Cc2ccc4ccccc4c2)NC(=O)[C@H](Cc2ccccc2)NC(=O)[C@H](CNC3=O)NC(=O)[C@H](C)NC(=O)[C@H](Cc2ccc(O)cc2)NC1=O [peptide 7, Tm(GWIYA)Δ(FΦRrRΔ)-BBK] (GWIYA[Dap]F[2Nal]R[dR]R[Dap][βAla][βAla]K-NH2; linker N-6-12 via Trimesoyl; C-terminus assumed)	5.9 fold	163%	5.00	did not inhibit	~ 1.5 fold	dose-dependently inhibited	unchanged	no effect	increased	no significant effect	reduced the viability	intense green fluorescence inside all cells	< 5.00
RQIKIWFQNRRMKWKKGGTALDWSWLQTE [peptide 1, reference compound]	–	–	~4.39	–	–	–	–	–	–	–	–	–	–
